# Assay results taken from US6653529B2, “Use of the maize X112 mutant ahas 2 gene and imidazolinone herbicides for selection of transgenic monocots, maize, rice and wheat plants resistant to the imidazolinone herbicides” (BASF Aktiengesellschaft, priority 2000, dated 2003).
# Columns and labels:
# [1] = test system: Nortai (control) suspension cells; assay: In vitro growth of suspension cells on imazethapyr; format: cell-based, rice
# Method: (§1) Cell suspension cultures were initiated from immature embryo-derived calli from either transgenic homozygous T2 plant 26-4-10 or Nortai plants in 3SN6d2 liquid medium and cultured two to three months prior to treatment with various concentrations of imazethapyr. The suspension cells were filtered through a 40μ nylon mesh, collected, and resuspended in 3SN6d2 liquid medium 0.2 ml of the suspended cells were loaded onto a Millipore filter, then placed on top of agarose solidified medium containing 0, 0.1, 0.25, 0.5, 1.0, 2.5, 5, 10, 25, or 50 μM imazethapyr (AC263,499). Three weeks later, all cultures were transferred once to fresh media with the same concentrations of imazethapyr and grown for another 5 weeks. Fresh weight was measured at the end of an 8-week culture period.
# [2] = test system: transgenic suspension cells (T2 plant 26-4-10); assay: In vitro growth of suspension cells on imazethapyr; format: cell-based, rice; conditions: 8-week culture
# Method: as §1
# [3] = test system: T1 corn plants of 1B1 (self and B73×1B1); assay: Spray test of T1 progeny of transgenic corn plant 1B1; format: in vivo; conditions: 4× (250 ai g/ha) at 3-leaf stage; 6 self and 8 B73×1B1 T1 plants
# Method: Transgenic corn plants were evaluated in the greenhouse for resistant levels to various imidazolinone herbicides and inheritance of the transgene. For corn, our protocol involved self- or cross-pollinating the transgenic plants for 2 to 3 generations and spraying T1 progeny plants to identify the resistant vs. susceptible plants. Detailed analysis for levels of herbicide resistance and the inheritance pattern. Identification of lines homozygous for the transgene is carried out in T2 generation with self-pollination and cross-pollination derived progeny plants. […] B73 and Mo17 lines were obtained USDA/ARS and Crop Sciences, UIUC, Urbana, Ill. 61801-4798. T1 plants were treated with 4×PURSUIT® imazethapyr (250 ai g/ha) at 3-leaf stage and rated as either resistant or susceptible to the herbicide. A total of 6 self and 8 B73×1B1 T1 plants were sprayed and all survived the herbicide treatments.
# [4] = test system: transgenic rice Line 29 (maize XI12 ahas2 gene); assay: Greenhouse spray test of rice with PURSUIT imazethapyr (pre- and post-emergence); format: in vivo
# [5] = test system: untransformed Nortai (Nt) rice plants; assay: as above; format: in vivo; conditions: for No. panicles/plant Mean / No. tillers/plant Mean / Plant height Mean / Yield % 0× / Yield Mean: Nt
# [6] = test system: transgenic corn hybrids BAa-4 and MAa-7; assay: Greenhouse spray test of corn, statements of the text on both transgenic lines; format: in vivo; conditions: 4× (160 g/ha)
# Source text: Grow one corn plant per pot (5×5 inch) in a 3×5 flat till three- to four-leaf stage (about 9 to 13 days depending on the weather). On the day of spraying, water the plants well and let excess water drip out. Spray plants on a belt-sprayer with the imidazolinone herbicides at desired rates. […] When temperature was too high, base water plants to prevent wilting. Closely observe the plants for the next two to three weeks. Symptoms of herbicide injury will be visible three days after spraying and susceptible plants will die within two to three weeks depending on temperature.
# The plants were rated on a scale of 0-5 with 0 for dead plants and 5 for healthy plants with no or minimum injury.
# Two transgenic hybrids BAa-4 and MAa-7 lines (see FIG. 5 for their pedigree), a non-transformed control line B×A (B73×A188), 8962IT (heterozygous XI12 imi-tolerant corn line), 8962 (wild type control) and 3395IR (homozygous XA17 imi-resistant corn line) (8962IT and 8962 were from ICI, now Garst Seed Company, Slater, Iowa 50244, and 3395IR was from Pioneer Hi-Bred International Inc, Iowa 50306-3453). Plants were sprayed with 4, 8, 16 or 20×PURSUIT® imazethapyr, ARSENAL® imazapyr, CADRE® imazameth or RAPTOR® imazamox. Plants were scored 0 to 5 (with 0 being dead plants, 5 being healthy plants with no injury) individually 16 days after herbicide treatments. […]
# [7] = post-emergence, Rate 63 (g ai/ha)
# [8] = post-emergence, Rate 125 (g ai/ha)
# [9] = post-emergence, Rate 250 (g ai/ha)
compound,measurement,setting,value
"CCc1cnc(C2=NC(C)(C(C)C)C(=O)N2)c(C(=O)O)c1 (centres unmarked) [PURSUIT ®, imazethapyr]",concentrations that inhibit the growth of untransformed rice cells,[1]; in vitro,≥ 0.1 µM
same,concentration at which growth of control cells was halted,"[1]; lowest concentration used, 8-week culture",0.1 μm
same,concentration up to which growth of transgenic suspension cells was normal,[2],up to 1.0 μm
same,concentration with no growth,[2],5 μm
same,concentration with sharp decrease in growth,[2],2 μm
same,survival of T1 plants,[3],all survived
same,No. panicles/plant Mean,[4]; [7],27.7
same,No. tillers/plant Mean,[4]; [7],34.5
same,Plant height Mean,[4]; [7],112.5 cm
same,Yield % 0×,[4]; [7],93 % 0×
same,Yield Mean,[4]; [7],199.0 g/5 plants
same,No. panicles/plant Mean,[4]; [8],24.5
same,No. tillers/plant Mean,[4]; [8],28.3
same,Plant height Mean,[4]; [8],114.1 cm
same,Yield % 0×,[4]; [8],113 % 0×
same,Yield Mean,[4]; [8],240.7 g/5 plants
same,No. panicles/plant Mean,[4]; [9],23.0
same,No. tillers/plant Mean,[4]; [9],24.1
same,Plant height Mean,[4]; [9],110.2 cm
same,Yield % 0×,[4]; [9],93 % 0×
same,Yield Mean,[4]; [9],197.3 g/5 plants
same,No. panicles/plant Mean,"[4]; pre-emergence, 63 g/ha",15.6
same,No. tillers/plant Mean,"[4]; pre-emergence, 63 g/ha",16.2
same,Plant height Mean,"[4]; pre-emergence, 63 g/ha",92.7 cm
same,Yield % 0×,"[4]; pre-emergence, 63 g/ha",93 % 0×
same,Yield Mean,"[4]; pre-emergence, 63 g/ha",156.3 g/5 plants
same,No. panicles/plant Mean,"[4]; pre-emergence, 125 g/ha",16.3
same,No. tillers/plant Mean,"[4]; pre-emergence, 125 g/ha",14.3
same,Plant height Mean,"[4]; pre-emergence, 125 g/ha",95.1 cm
same,Yield % 0×,"[4]; pre-emergence, 125 g/ha",99 % 0×
same,Yield Mean,"[4]; pre-emergence, 125 g/ha",166.7 g/5 plants
same,No. panicles/plant Mean,"[4]; pre-emergence, 250 g/ha",16.2
same,No. tillers/plant Mean,"[4]; pre-emergence, 250 g/ha",16.3
same,Plant height Mean,"[4]; pre-emergence, 250 g/ha",93.1 cm
same,Yield % 0×,"[4]; pre-emergence, 250 g/ha",92 % 0×
same,Yield Mean,"[4]; pre-emergence, 250 g/ha",155.3 g/5 plants
same,reduction in plant height,"[5]; Nortai, pre-emergence, 63 g/ha",about 20%
same,reduction in yield,"[5]; Nortai, pre-emergence, 63 g/ha",~40%
same,No. panicles/plant Mean,[5]; [7],15.7
same,No. tillers/plant Mean,[5]; [7],20.0
same,Plant height Mean,[5]; [7],117.3 cm
same,Yield % 0×,[5]; [7],99 % 0×
same,Yield Mean,[5]; [7],227.0 g/5 plants
same,No. panicles/plant Mean,[5]; [8],13.9
same,No. tillers/plant Mean,[5]; [8],13.5
same,Plant height Mean,[5]; [8],94.5 cm
same,Yield % 0×,[5]; [8],52 % 0×
same,Yield Mean,[5]; [8],120.0 g/5 plants
same,No. panicles/plant Mean,[5]; [9],0
same,No. tillers/plant Mean,[5]; [9],0
same,Plant height Mean,[5]; [9],0 cm
same,Yield % 0×,[5]; [9],0 % 0×
same,Yield Mean,[5]; [9],0 g/5 plants
same,No. panicles/plant Mean,"[5]; pre-emergence, 63 g/ha",5.7
same,No. tillers/plant Mean,"[5]; pre-emergence, 63 g/ha",6.5
same,Plant height Mean,"[5]; pre-emergence, 63 g/ha",98.0 cm
same,Yield % 0×,"[5]; pre-emergence, 63 g/ha",56 % 0×
same,Yield Mean,"[5]; pre-emergence, 63 g/ha",110.7 g/5 plants
same,No. panicles/plant Mean,"[5]; pre-emergence, 125 g/ha",0
same,No. tillers/plant Mean,"[5]; pre-emergence, 125 g/ha",0
same,Plant height Mean,"[5]; pre-emergence, 125 g/ha",0 cm
same,Yield % 0×,"[5]; pre-emergence, 125 g/ha",0 % 0×
same,Yield Mean,"[5]; pre-emergence, 125 g/ha",0 g/5 plants
same,No. panicles/plant Mean,"[5]; pre-emergence, 250 g/ha",0
same,No. tillers/plant Mean,"[5]; pre-emergence, 250 g/ha",0
same,Plant height Mean,"[5]; pre-emergence, 250 g/ha",0 cm
same,Yield % 0×,"[5]; pre-emergence, 250 g/ha",0 % 0×
same,Yield Mean,"[5]; pre-emergence, 250 g/ha",0 g/5 plants
same,fate of control plants,"[5]; post-emergence, 250 g ai/ha",killed all plants
same,fate of control (Nortai) plants,"[5]; pre-emergence, 125 and 250 g/ha",completely killed
"COCc1cnc(C2=NC(C)(C(C)C)C(=O)N2)c(C(=O)O)c1 (centres unmarked) [RAPTOR ®, imazamox]",injury to transgenic corn plants,[6],no or slight injury
